Measured values reported in patent publication US6525211B1, “Herbicidal sulphonylamino(thio)carbonyl compounds” (Bayer Aktiengesellschaft, priority 1995, dated 2003).

Experiments:
broad-leaved weeds [1] = experiment: Pre-emergence test (Example A); format: in vivo; conditions: soil watered with preparation 24 hours after sowing, rated after three weeks vs untreated control (0%=no action, 100%=total destruction)
Protocol: Solvent: 5 parts by weight of acetone
Emulsifier: 1 part by weight of alkylaryl polyglycol ether
(§1) To produce a suitable preparation of active compound, 1 part by weight of active compound is mixed with the stated amount of solvent, the stated amount of emulsifier is added and the concentrate is diluted with water to the desired concentration.
Seeds of the test plants are sown in normal soil, and, after 24 hours, the soil is watered with the preparation of the active compound. It is expedient to keep constant the amount of water per unit area. The concentration of the active compound in the preparation is of no importance, only the amount of active compound applied per unit area being decisive.
After three weeks, the degree of damage to the plants is rated in % damage in comparison to the development of the untreated control. The figures denote:
(§2) 0%=no action (like untreated control) 100%=total destruction

broad-leaved weeds [2] = experiment: Post-emergence test (Example B); format: in vivo; conditions: test plants of 5-15 cm height sprayed, 2,000 l water/ha, rated after three weeks vs untreated control (0%=no action, 100%=total destruction)
Protocol: as §1
Test plants which have a height of 5-15 cm are sprayed with the preparation of the active compound in such a way as to apply the particular amounts of active compound desired per unit area. The concentration of the spray liquor is chosen so that the particular amounts of active compound desired are applied in 2,000 1 of water/ha. After three weeks, the degree of damage to the plants is rated in % damage in comparison to the development of the untreated control.
as §2

SMILES | action against broad-leaved weeds (degree of damage to the plants) (broad-leaved weeds [1]) | action against broad-leaved weeds (degree of damage to the plants) (broad-leaved weeds [2]) | melting point [°C]
CCOc1nn(C(=O)NS(=O)(=O)c2c(C)cccc2OC(C)C)c(=O)n1C [Example 1, 5-ethoxy-4-methyl-2-(2-isopropoxy-6-methyl-phenylsulphonyl-aminocarbonyl)-2,4-dihydro-3H-1,2,4-triazol-3-one] | very strong action | very strong action | –
CCOc1cccc(C)c1S(=O)(=O)NC(=O)n1nc(OCC)n(C)c1=O [Example 9, 5-ethoxy-4-methyl-2-(2-ethoxy-6-methyl-phenylsulphonylaminocarbonyl)-2,4-dihydro-3H-1,2,4-triazol-3-one] | – | – | 162
